# Data: ChEMBL document CHEMBL6074684, “Structure-activity relationship study of novel evodiamine amino acid conjugates with potent anti-colorectal cancer efficacy” (Eur J Med Chem, 2025)
# The source made the active and inactive calls. No cut-off for these calls is given here.
# Columns and labels:
# LoVo = test: Antitumor activity against human LoVo cells xenografted in male BALB/c nude mouse assessed as tumor growth inhibition at 0.5 mg/kg, ip administered once daily for 14 days; type: functional, organism-based; settings: time 14.0 day
# HT-29 = test: Antitumor activity against human HT-29 cells xenografted in male BALB/c nude mouse assessed as tumor growth inhibition at 0.5 mg/kg, ip administered once daily for 14 days relative to control; type: functional; settings: HT-29, 336 h, time 14 day, read-out: TGI
# [1] = Toxicity in male BALB/c nude mouse xenografted with human LoVo cells assessed as animal death at 0.5 mg/kg, ip administered once daily for 14 days; type: organism-based; settings: in vivo, 336 h, time 14 day
# [2] = Toxicity in male BALB/c nude mouse xenografted with human LoVo cells assessed as body weight loss at 0.5 mg/kg, ip administered once daily for 14 days; type: organism-based; settings: in vivo, 336 h, time 14 day
# [3] = Toxicity in male BALB/c nude mouse xenografted with human HT-29 cells assessed as body weight loss at 0.5 mg/kg, ip administered once daily for 14 days; type: organism-based; settings: in vivo, 336 h, time 14 day
# [4] = Toxicity in male BALB/c nude mouse xenografted with human HT-29 cells assessed as animal death at 0.5 mg/kg, ip administered once daily for 14 days; type: organism-based; settings: in vivo, 336 h, time 14 day
smiles,measurement,setting,value
CC[C@@]1(O)C(=O)OCc2c1cc1n(c2=O)Cc2cc3c(CN(C)C)c(O)ccc3nc2-1 [TOPOTECAN],Activity,LoVo,Active
same,inhibition in vivo at 0.5 mg/kg,HT-29,70.7%
same,Activity,[1],Toxic
same,Activity,[2],Toxic
same,Activity,[3],Toxic
same,Activity,[4],Toxic
